The results in this text go back to paper PMC10135272, “Synthesis, Molecular Docking Study, and Biological Evaluation of New 4-(2,5-Dimethyl-1H-pyrrol-1-yl)-N’-(2-(substituted)acetyl)benzohydrazides as Dual Enoyl ACP Reductase and DHFR Enzyme Inhibitors” (Antibiotics, 2023).

In data set [1] the test system is S. aureus (Gram +ve). Nature of the data set: Antibacterial activity, broth microdilution. The data set is classed as cell-based. Particulars: Staphylococcus aureus. (In broth dilution the organism is exposed to a series of concentrations in liquid medium.)
In data set [2] the test system is E. coli (Gram −ve). The data set can be described thus: Antibacterial activity, broth microdilution. It is filed as cell-based. Particulars: Escherichia coli.
Data set [3] concerns M. tuberculosis H37Rv. The data set can be described thus: Antitubercular activity, Microplate Alamar Blue assay (MABA). The data set is classed as cell-based. Particulars: Mycobacterium tuberculosis, average of triplicate tests. (Alamar Blue is a resazurin reagent that responds to reducing activity.)
Data set [4] concerns the target MtDHFR (Mycobacterium tuberculosis, UniProt P9WNX1). Nature of the data set: biochemical. Particulars: for MtDHFR inhibitory activity (in words): in vitro assay. It is filed as biochemical.
In data set [5] the target is InhA (enoyl ACP reductase) (Mycobacterium tuberculosis, UniProt P9WGR1). The data set can be described thus: Enoyl ACP reductase (InhA) inhibition. It is filed as biochemical. Particulars: for enoyl ACP reductase inhibitory activity (in words): in vitro assay.
Chain of InhA (enoyl ACP reductase) (P9WGR1 whole entry, looked up): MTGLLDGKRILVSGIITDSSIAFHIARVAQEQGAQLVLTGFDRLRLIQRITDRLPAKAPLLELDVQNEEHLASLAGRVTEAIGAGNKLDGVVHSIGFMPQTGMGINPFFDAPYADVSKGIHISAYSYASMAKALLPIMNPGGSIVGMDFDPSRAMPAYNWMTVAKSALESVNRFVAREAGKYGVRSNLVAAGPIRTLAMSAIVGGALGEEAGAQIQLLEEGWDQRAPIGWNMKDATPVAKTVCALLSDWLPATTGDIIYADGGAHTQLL
A short description of data set [6]: MTT-based cytotoxicity. Particulars: African green monkey; MTT assay, Mammalian Vero cell lines, means ± SEM of three independent experiments; read-out: IC50 MV Cell Lines (cytotoxicity). It is filed as cell-based. As for the experimental part: (§1) Cellular conversion of MTT (3-(4,5-dimethylthiazo-2-yl)-2,5-diphenyl-tetrazolium bromide) into a formazan product was performed to evaluate the cytotoxic activity (IC50) of some of the compounds against A549 (lung adenocarcinoma) MV cell lines up to a concentration of […] using a Promega Cell Titer 96 non-radioactive cell proliferation assay with cisplatin as the positive control. The IC50 values given in Table 6 are the averages ± SEM of three independent measurements.
Background: Tetrazolium assays rely on reduction of a dye to a coloured formazan, in cell work by metabolically active cells.

A short description of data set [7]: MTT-based cytotoxicity. It is filed as cell-based, human. Particulars: human; MTT assay, A549 lung adenocarcinoma, means ± SEM of three independent experiments. As for the experimental part:
as §1

In data set [8] the test system is Mammalian Vero cell lines (MV cell lines). The data set can be described thus: MTT-based cytotoxicity. The data set is classed as cell-based. As for the experimental part: as §1
Data set [9] concerns A549 (lung adenocarcinoma) cell lines. The data set can be described thus: MTT-based cytotoxicity. It is filed as cell-based, human. As for the experimental part:
as §1

Usually MIC stands for the lowest concentration found to suppress growth. Low values mean a more susceptible organism, high ones a less susceptible organism. A word on the IC50: it is the concentration that inhibits the measured activity by half. In general, inhibition refers to how much of the control response was suppressed. Lower therefore signals little suppression.

Values after ≈ are worked out from the molar mass of the structure shown. Where two headings read alike, the source gives them in different places.

Chain of MtDHFR (P9WNX1 whole entry): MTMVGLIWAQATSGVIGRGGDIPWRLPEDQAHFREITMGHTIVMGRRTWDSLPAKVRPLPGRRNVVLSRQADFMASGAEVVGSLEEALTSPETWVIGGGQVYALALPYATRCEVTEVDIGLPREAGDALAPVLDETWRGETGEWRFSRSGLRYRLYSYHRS

Take `O=C(O)c1cn(C2CC2)c2cc(N3CCNCC3)c(F)cc2c1=O` [Ciprofloxacin, reference compound]: the MIC in [1] and in data set [2] was 2 µg/mL (≈ 6.04 µM) in each case.
Consider `Cc1ccc(C)n1-c1ccc(C(=O)NNC(=O)Cc2ccccc2)cc1` [Compound 5a, 4-(2,5-Dimethyl-1H-pyrrol-1-yl)-N′-(2-phenylacetyl)benzohydrazide], for which the MIC amounted to 25 µg/mL (≈ 72 µM) in [3], 50 µg/mL (≈ 144 µM) in data set [1] and 50 µg/mL (≈ 144 µM) in [2]. Besides, the IC50 in [4] is 146 µM.
As for `Cc1ccccc1CC(=O)NNC(=O)c1ccc(-n2c(C)ccc2C)cc1` [Compound 5b, 4-(2,5-Dimethyl-1H-pyrrol-1-yl)-N′-(2-(o-tolyl)acetyl)benzohydrazide], the MIC was found to be 25 µg/mL (≈ 69.2 µM) in [3], 0.8 µg/mL (≈ 2.21 µM) in data set [1] and 50 µg/mL (≈ 138 µM) in data set [2]. In data set [4], this molecule returned an IC50 of 125 µM.
As for `Cc1ccc(CC(=O)NNC(=O)c2ccc(-n3c(C)ccc3C)cc2)cc1` [Compound 5c, 4-(2,5-Dimethyl-1H-pyrrol-1-yl)-N′-(2-(p-tolyl)acetyl)benzohydrazide], the MIC in data set [3] came to 25 µg/mL (≈ 69.2 µM); in data set [1] it was 3.12 µg/mL (≈ 8.63 µM); in data set [2], 50 µg/mL (≈ 138 µM). Further, the IC50 in data set [4] amounted to 118 µM; in data set [6], 221 ± 0.8 µM; in [7], 219 ± 0.7 µM. Moreover, the inhibition at 50 µM in [5] was found to be 20%.
Regarding `COc1ccc(CC(=O)NNC(=O)c2ccc(-n3c(C)ccc3C)cc2)cc1` [Compound 5d, 4-(2,5-Dimethyl-1H-pyrrol-1-yl)-N′-(2-(4-methoxyphenyl)acetyl)benzohydrazide], the MIC came to 3.25 µg/mL (≈ 8.61 µM) in data set [3], 3.12 µg/mL (≈ 8.27 µM) in data set [1] and 100 µg/mL (≈ 265 µM) in data set [2]. The IC50 was 85 µM in data set [4], 214 ± 0.6 µM in [6] and 214 ± 0.2 µM in data set [7]. The molecule further showed an inhibition at 50 µM in data set [5] of 32%.
`COc1ccccc1CC(=O)NNC(=O)c1ccc(-n2c(C)ccc2C)cc1` [Compound 5e, 4-(2,5-Dimethyl-1H-pyrrol-1-yl)-N′-(2-(2-methoxyphenyl)acetyl)benzohydrazide]: the MIC in data set [3] is 6.25 µg/mL (≈ 16.6 µM); in data set [1], 6.25 µg/mL (≈ 16.6 µM); in [2], 100 µg/mL (≈ 265 µM). In data set [4], this molecule yielded an IC50 of 78 µM.
For `Cc1ccc(C)n1-c1ccc(C(=O)NNC(=O)Cc2ccc(Cl)cc2)cc1` [Compound 5f, N′-(2-(4-Chlorophenyl)acetyl)-4-(2,5-dimethyl-1H-pyrrol-1-yl)benzohydrazide], the figures for the minimum inhibitory concentration (MIC) in [3], in [1] and in data set [2] were 1.6 µg/mL (≈ 4.19 µM), 1.6 µg/mL (≈ 4.19 µM) and 50 µg/mL (≈ 131 µM), respectively. Also, the IC50 in data set [4] came to 25 µM; in data set [6], 215 ± 0.2 µM; in data set [7] it was 216 ± 0.5 µM. Besides, in [4], the “MtDHFR inhibitory activity (in words)” value was “promising enzyme inhibitory activity”. This molecule also registered an inhibition at 50 µM in data set [5] of 76%. In addition, the “enoyl ACP reductase inhibitory activity (in words)” value in [5] was “promising enzyme inhibitory activity”.
Take `Cc1ccc(C)n1-c1ccc(C(=O)NNC(=O)Cc2ccccc2Cl)cc1` [Compound 5g, N′-(2-(2-Chlorophenyl)acetyl)-4-(2,5-dimethyl-1H-pyrrol-1-yl)benzohydrazide]: the MIC in data set [3] came out at 3.25 µg/mL (≈ 8.51 µM); in [1] it was 3.12 µg/mL (≈ 8.17 µM); in data set [2], 50 µg/mL (≈ 131 µM). Moreover, in data set [4], it took 26 µM to reach half-maximal inhibition (IC50).
In the case of `Cc1ccc(C)n1-c1ccc(C(=O)NNC(=O)Cc2cccc(Cl)c2)cc1` [Compound 5h, N′-(2-(3-Chlorophenyl)acetyl)-4-(2,5-dimethyl-1H-pyrrol-1-yl)benzohydrazide], the figures for the minimum inhibitory concentration (MIC) in data set [3], in data set [1] and in [2] were 3.25 µg/mL (≈ 8.51 µM), 6.25 µg/mL (≈ 16.4 µM) and 50 µg/mL (≈ 131 µM), respectively. This molecule also returned an IC50 in [4] of 30 µM.
With `Cc1ccc(C)n1-c1ccc(C(=O)NNC(=O)Cc2ccc(Br)cc2)cc1` [Compound 5i, N′-(2-(4-Bromophenyl)acetyl)-4-(2,5-dimethyl-1H-pyrrol-1-yl)benzohydrazide], the MIC was 1.6 µg/mL (≈ 3.75 µM) in data set [3], 6.25 µg/mL (≈ 14.7 µM) in data set [1] and 50 µg/mL (≈ 117 µM) in data set [2]. In addition, the figures for the IC50 in data set [4], in [6] and in [7] were 18 µM, 218 ± 0.3 µM and 214 ± 0.4 µM, respectively. Also, the “MtDHFR inhibitory activity (in words)” value in data set [4] was “promising enzyme inhibitory activity”. In [5], this molecule showed an inhibition at 50 µM of 72%. Besides, the “enoyl ACP reductase inhibitory activity (in words)” value in [5] is reported as “promising enzyme inhibitory activity”.
As to `Cc1ccc(C)n1-c1ccc(C(=O)NNC(=O)Cc2ccccc2Br)cc1` [Compound 5j, N′-(2-(2-Bromophenyl)acetyl)-4-(2,5-dimethyl-1H-pyrrol-1-yl)benzohydrazide], the MIC in [3] amounted to 1.6 µg/mL (≈ 3.75 µM); in data set [1], 6.25 µg/mL (≈ 14.7 µM); in data set [2], 50 µg/mL (≈ 117 µM). This molecule also returned an IC50 in [4] of 15 µM.
Take `Cc1ccc(C)n1-c1ccc(C(=O)NNC(=O)Cc2ccc(F)cc2)cc1` [Compound 5k, 4-(2,5-Dimethyl-1H-pyrrol-1-yl)-N′-(2-(4-flurophenyl)acetyl)benzohydrazide]: the MIC in data set [3] is 0.8 µg/mL (≈ 2.19 µM); in [1], 1.6 µg/mL (≈ 4.38 µM); in data set [2], 50 µg/mL (≈ 137 µM). Moreover, the IC50 was 10 µM in data set [4], 221 ± 0.3 µM in [6] and 219 ± 0.4 µM in [7]. In addition, the “MtDHFR inhibitory activity (in words)” value in [4] is “promising enzyme inhibitory activity”. The inhibition at 50 µM in [5] was found to be 88%. Further, in data set [5], the “enoyl ACP reductase inhibitory activity (in words)” value is on record as “promising enzyme inhibitory activity”.
`Cc1ccc(C)n1-c1ccc(C(=O)NNC(=O)Cc2ccc(O)cc2)cc1` [Compound 5l, 4-(2,5-Dimethyl-1H-pyrrol-1-yl)-N′-(2-(4-hydroxyphenyl)acetyl)benzohydrazide]: the MIC in [3] was determined as 3.25 µg/mL (≈ 8.94 µM); in [1] it was 6.25 µg/mL (≈ 17.2 µM); in data set [2], 50 µg/mL (≈ 138 µM). Also, the IC50 in data set [4] is 30 µM.
`Cc1ccc(C)n1-c1ccc(C(=O)NNC(=O)Cc2cccc(Br)c2)cc1` [Compound 5m, 4-(2,5-Dimethyl-1H-pyrrol-1-yl)-N′-(2-(3-bromophenyl)acetyl)benzohydrazide]: the results for the MIC in data set [3], in data set [1] and in data set [2] were 3.25 µg/mL (≈ 7.62 µM), 12.5 µg/mL (≈ 29.3 µM) and 50 µg/mL (≈ 117 µM), respectively. In data set [4], this molecule gave an IC50 of 18 µM.
Regarding `Cc1ccc(C)n1-c1ccc(C(=O)NNC(=O)Cc2ccc([N+](=O)[O-])cc2)cc1` [Compound 5n, 4-(2,5-Dimethyl-1H-pyrrol-1-yl)-N′-(2-(4-nitrophenyl)acetyl)benzohydrazide], the MIC stood at 1.6 µg/mL (≈ 4.08 µM) in data set [3], 12.5 µg/mL (≈ 31.9 µM) in [1] and 50 µg/mL (≈ 127 µM) in data set [2]. In [4], this molecule displayed an IC50 of 15 µM.
For `NNC(=O)c1ccncc1` [INH, reference compound], the IC50 in data set [8] and in data set [9] was above 450 µM throughout.
In [3], `NC(=O)c1cnccn1` [Pyrazinamide, reference compound] displayed an MIC of 3.12 µg/mL (≈ 25.4 µM).
Molecule `[H]/N=C(/N)N[C@H]1[C@H](O)[C@@H](O)[C@H](O[C@@H]2O[C@@H](C)[C@](O)(C=O)[C@H]2O[C@@H]2O[C@@H](CO)[C@H](O)[C@@H](O)[C@@H]2NC)[C@@H](N/C(N)=N\[H])[C@@H]1O` [Streptomycin, reference compound] came in with an MIC in [3] of 6.25 µg/mL (≈ 10.7 µM).
